Read-outs that look alike come from different tables or passages of the source. Square brackets hold non-standard residues; d marks the D form. Ends that are not written are not given here. pY = N[C@@H](Cc1ccc(OP(=O)(O)O)cc1)C(=O)O
Legend:
[1] = system: MOLM-13Luc/CBLock cells in NSG mice
[2] = Solubility as noted by the authors; assay type: physicochemical; settings: qualitative, aqueous solution
[3] = system: CBL mutant 70Z; test: GFP-trap co-immunoprecipitation with Myc-tagged CBL-70Z in HEK293 cells; assay type: cell-based; settings: expressed as GFP-CBLock variants in HEK293 cells
Procedure: The cells were pelleted and lysed in IP lysis buffer (50 mM Tris-HCl pH 7.5, 150 mM NaCl, 1 mM EDTA, 1% IGEPAL CA-630, 10% glycerol, 0.5 mM DTT, and cOmplete protease inhibitor cocktail) to prepare the whole cell lysates. Immunoprecipitation and immunoblotting were performed using the lysates as described before.[28] For each regular immunoprecipitation reaction, 1 mg freshly prepared whole cell lysate was incubated with primary antibodies at 4 °C for 4 h on a rotatory shaker. […] Alternatively for each reaction, 1 mg freshly prepared whole cell lysate was incubated overnight with antibody- or immunoglobulin (Ig)G-conjugated agarose beads. The next day beads were washed three times with IP lysis buffer and once with PBS. […] This was followed by similar washing steps as mentioned before. The beads were then either processed for mass spectrometry or immunoprecipitated proteins were eluted at 95 °C in 40 μL 2X loading dye. A previous method was used to perform immunoblotting[51] and the immunoblots were scanned using an Odyssey CLx Imaging System (LI-COR Biosciences).

[4] = system: CBL (47–435) R139C/D435C variant (diCys); test: Disulfide bond formation assay; assay type: biochemical; settings: CBL 47–435 diCys, SDS-PAGE, n = 3
Procedure: CBL variant mixtures were prepared at room temperature as described previously,[7] keeping aside a sample portion for zero-time point. Removal of DTT using a Zeba spin desalting column (Thermo Scientific) initiated the reactions. At indicated time points, samples were removed and quenched with 20 mM N-ethylmaleimide (NEM; Sigma) for 10 min and mixed with 4X SDS loading buffer. DTT (100 mM) was added to prepare the reduced samples. The samples were resolved by SDS-PAGE and the gels stained with Coomassie blue were scanned. The disulfide-bonded (D) and unmodified species (U) were quantified using the Image Studio software. Three independent experiments were performed, and curves for the disulfide bond fractions from each reaction were generated using GraphPad Prism.

Molecule	Binding to CBL mutant 70Z [3]	Effect on diCys disulfide bond formation [4]	other results
CC[C@H](C)[C@H](NC(=O)[C@H](Cc1c[nH]c2ccccc12)NC(=O)[C@H](CO)NC(=O)[C@H](CC(=O)O)NC(=O)[C@H](CCSC)NC(=O)[C@H](CCC(=O)O)NC(=O)[C@H](CCC(=O)O)NC(=O)[C@@H](NC(=O)[C@@H](NC(=O)[C@@H](N)CCSC)[C@@H](C)O)C(C)C)C(=O)N[C@@H](CCCCN)C(=O)N[C@@H](CO)C(=O)N[C@@H](Cc1c[nH]c2ccccc12)C(=O)N[C@@H](CC(=O)O)C(=O)N[C@@H](CCC(N)=O)C(=O)N[C@@H](CCCNC(=N)N)C(=O)O [CBLock]	–	–	Body weight ([1]; cohort two): no marked changes in body weights; Body weight ([1]; first experiment, dox vs vehicle): no obvious difference in body weight; Solubility [2]: enhanced solubility in aqueous solution
CBLock-DM: CBLock mutant D7A/I10A expressed as GFP or iRFP fusion (MTVEEMASWAKSWDQR; also: fused to GFP or iRFP)	failed to bind the CBL mutant 70Z	–	–
IKDWQDRSVWESMTME [CBLock-Sc2]	failed to bind the CBL mutant 70Z	–	–
SMEKTDQWRMVEIDSW [CBLock-Sc1]	failed to bind the CBL mutant 70Z	–	–
STVSFNP[pY]EPTGGPWG [pSYK, phosphotyrosine substrate peptide from SYK]	–	prevented formation of the diCys disulfide bond	–
TLNSDG(p)YTPEPA [pZAP70, phosphotyrosine substrate peptide from ZAP70]	–	prevented formation of the diCys disulfide bond	–
